This is an account of results in US10111427B2, “Formulation for improving the yield and quality of fiber in cotton plants” (Council of Scientific & Industrial Research, priority 2015, dated 2018).

The subject of assay [1] is cultured cotton ovules. Kind of assay: Ovule culture with different phytohormones with and without Anacardic acid. Type of assay: cell-based. The following applies: 12 DPA; for growth in cultures having Anacardic acid with phytohormone: Anacardic acid added at 3 DPA, in comparison to control where only phytohormones were used; for Lignin content of ovules cultured with Anacardic acid and phytohormone: toluidine blue, in comparison to control wherein only phytohormones are used. Here is the method:
To check the effect of the phytohormones on fiber development for better yield and quality of fibers, different phytohormones and their combinations were tested first tested on cultured ovules. Cotton buds and flowers at 1 DPA stage were plucked from the plants for the ovule culture. Ovaries were surface sterilized using 1% Mercuric chloride solution and washed three times with MQ water. Ovules were excised using sterilized fine forceps and brushes. Isolted ovules (3-5) were transferred to culture media with different 5 μM of 1-Naphthaleneacetic acid (1NAA), Indole-3-acetic acid (IAA), 2,4-Dichlorophenoxyacetic acid (2,4-D), Kinetin, Zeatin and 0.5 μM Gibberellic acid (GA3)along with untreated ovules (having no phytohormones) placed in 35mm tissue culture dishes in two sets. All the dishes were further places in incubators set at 32° C. In one set of dishes, Anacardic acid was added to 3 DPA stage, while the other set was used to control. It has been observed that at 12 DPA stage growth in cultures having Anacardic acid with phytohormones like 1-NAA, IAA, 2,4-D and GA3 at […] was better in comparison to the control conditions, where only phytohormones were used (FIG. 8). […] For the lignin qualification, ovules were boiled in distilled water with a drop of concentrated HCl to dissolve waxes and leave the fibers hydrophilic. After rinsing in distilled water, three ovules per sample were places in a 50 ml falcon tube and stained with 30 ml. of toluidine blue solution (0.018% toluidine blue, 0.016 M Na2HPO4, 0.01 M citric acid, pH 4.5) for 30 s. After staining, the ovules were rinsed thoroughly with distilled water and briefly laid on absorbent paper to remove excess water. Ovules were then returned to 50 ml falcon tubes and 50 ml of destaining solution comprising glacial acetic acid, ethanol and water (10:95:5) added. After vigorous shaking and destaining for at least 1 h, 200μl of the solution was pipetted in triplicate into 96-well flat bottom microtiter plates for measurement of absorbance at 624 nm in a plate reader.

Assay [2] deals with cultured cotton ovules. Briefly: In-vitro cotton ovule culture assay, phenotypic observation of fiber growth. Type of assay: cell-based. The following applies: tested 1-NAA 1, 5, 10, 20 μM; GA3 0.1, 0.5, 1, 5 μM; Anacardic acid 2, 4, 8, 10 μM; 32° C. From the text: In the present invention, Anacardic acid may be dissolved in solvents selected from Dimethyl Sulfoxide (DMSO), Dimethyl formamide (DMFO), ethanol methanol, dichloromethane, ether, petroleum ether and ethyl acetate in a suitable concentration and mixed with 1Naphthaleneacetic Acid (1-NAA) and Gibberellic acid (GA3). For standardization of appropriate concentrations of phytohormones and Anacardic acid for better yield and quality of fiber, the formulation and its components were first tested on cultured ovules. Different concentrations of 1-NAA (1, 5, 10 and 20 μM) and GA3 (0.1, 0.5, 1 and 5 μM) were tested in ovule culture media and established that fiber growth was better at 5 μM 1-NAA and 0.5 μM GA3. Similarly, different concentrations of Anacardic acid (2, 4, 8 and 10 μM) were also used and established that fiber growth was better at 8 μM Anacardic acid in media in comparison to other concentrations.
Formulation was diluted with modified ½ MSL (Murasighe Skoog Liquid) media having 2% sucrose for a final concentration of Anacardic acid to 8 μM, 1-NAA to 5 μM and GA3 to 0.5 μM. This formulation was then used to culture cotton, ovules excised at −3 DPA (Day Post Anthesis) to study its effect on fiber initiation and at 0 DPA for fiber elongation. Ovules were examined (at 3 DPA for initiation and at 12 DPA for elongation stage) and photographed (Example 1). […] Cotton ovules cultured with the formulation (1-NAA+GA3+ Anacardic acid) in culture media show higher number of initiating fibers and better growth in comparison to control ovules (only phytohormones treated).
For standardization of appropriate concentrations of phytohormones and Anacardic acid for better yield and quality of fiber, the formulation and its components were first tested on cultured ovules. […]
Finally, in-vitro ovule culture experiment was performed with 8 μM Anacardic acid, 5 μM 1-NAA and 0.5 μM GA3 in media along with control sample having only 5 μM 1-NAA and 0.5 μM GA3. The phenotypic observations were recorded at 3 DPA for initiation stage and at 12 DPA for elongation stage (FIG. 1).

`O=C(O)Cc1c[nH]c2ccccc12` [IAA, Indole-3-acetic acid]: in the assay with cultured cotton ovules [1], the “growth in cultures having Anacardic acid with phytohormone” value (shortened to “growth in cultures having Anacardic acid”) is listed as “better”; the “Lignin content of ovules cultured with Anacardic acid and phytohormone” value (shortened to “Lignin content of ovules cultured”) is “higher”.

In the case of `O=C(O)Cc1cccc2ccccc12` [1-NAA, 1-Naphthaleneacetic acid], in the assay with cultured cotton ovules [1], the “growth in cultures having Anacardic acid” value is “better”; the “Lignin content of ovules cultured” value is given as “higher”. Besides, the “concentration at which fiber growth in ovule culture was better” value (shortened to “concentration at which fiber growth”) in the assay with cultured cotton ovules [2] is 5 µM.

Turning to `C=C1C[C@]23C[C@@]1(O)CC[C@H]2[C@@]12C=C[C@H](O)[C@@](C)(C(=O)O1)[C@H]2[C@@H]3C(=O)O` [GA3, Gibberellic acid], in the assay on cultured cotton ovules [1], the “growth in cultures having Anacardic acid” value is “better”; the “Lignin content of ovules cultured” value is “higher”. Further, the “concentration at which fiber growth” value in the assay on cultured cotton ovules [2] is 0.5 µM.

Regarding `O=C(O)COc1ccc(Cl)cc1Cl` [2,4-D, 2,4-Dichlorophenoxyacetic acid], in the assay on cultured cotton ovules [1], the “growth in cultures having Anacardic acid” value is on record as “better”; the “Lignin content of ovules cultured” value is “higher”.

For `CCCCCCCCCCCCCCCc1cccc(O)c1C(=O)O` [Anacardic acid], the “concentration at which fiber growth” value in the assay on cultured cotton ovules [2] stood at 8 µM.
